# Reference: patent US12344600B2, “c-Myc mRNA translation modulators and uses thereof in the treatment of cancer” (Anima Biotech Inc., priority 2022, dated 2025)
# System: c-Myc
# Experiment: c-Myc immunofluorescence assay
# Format: cell-based, human
# Details: A549 cells, 24 hours, anti-c-Myc immunofluorescence
# Procedure, shortened: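 A549 NSCLC cells grown 48 h, then treated 24 h with increasing compound concentrations; fixed in 4% paraformaldehyde, stained with anti-c-Myc antibody plus fluorescent secondary and DAPI. Per-cell c-Myc fluorescence quantified by high-content imaging at 20×; dose-response fitted by logistic regression to give EC50.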
row,SMILES,Myc Efficacy (−LogEC50)
1,"COc1ccc(-c2noc(N3CCC(C(=O)NC4(Cc5ccccc5)COC4)CC3)n2)cc1 [Compound 277, N-(3-benzyloxetan-3-yl)-1-(3-(4-methoxyphenyl)-1,2,4-oxadiazol-5-yl)piperidine-4-carboxamide]",+ (+ >3 and <5)
2,"COc1ccc(-c2noc(N3CCC(C(=O)NCC4CCc5ccccc5O4)CC3)n2)cc1 (centres unmarked) [Compound 278, N-(chroman-2-ylmethyl)-1-(3-(4-methoxyphenyl)-1,2,4-oxadiazol-5-yl)piperidine-4-carboxamide]",+ (+ >3 and <5)
3,"CC[C@H](C)NC(=O)C1CCN(c2nc(-c3ccc(OC)cc3)no2)CC1 [Compound 279, (S)-N-(sec-butyl)-1-(3-(4-methoxyphenyl)-1,2,4-oxadiazol-5-yl)piperidine-4-carboxamide]",+ (+ >3 and <5)
4,"COc1ccc(-c2noc(N3CCC(C(=O)NC(c4ccccn4)C4CC4)CC3)n2)cc1 (centres unmarked) [Compound 280, N-(cyclopropyl(pyridin-2-yl)methyl)-1-(3-(4-methoxyphenyl)-1,2,4-oxadiazol-5-yl)piperidine-4-carboxamide]",+ (+ >3 and <5)
5,"COc1ccc(-c2noc(N3CCC(C(=O)NCc4ccc5c(c4)CCO5)CC3)n2)cc1 [Compound 281, N-((2,3-dihydrobenzofuran-5-yl)methyl)-1-(3-(4-methoxyphenyl)-1,2,4-oxadiazol-5-yl)piperidine-4-carboxamide]",+ (+ >3 and <5)
6,"COc1ccc(-c2noc(N3CCC(C(=O)NCCOc4ccccc4)CC3)n2)cc1 [Compound 282, 1-(3-(4-methoxyphenyl)-1,2,4-oxadiazol-5-yl)-N-(2-phenoxyethyl)piperidine-4-carboxamide]",+ (+ >3 and <5)
7,"COc1ccc(-c2noc(N3CCC(C(=O)NC4COc5ccccc54)CC3)n2)cc1 (centres unmarked) [Compound 283, N-(2,3-dihydrobenzofuran-3-yl)-1-(3-(4-methoxyphenyl)-1,2,4-oxadiazol-5-yl)piperidine-4-carboxamide]",+ (+ >3 and <5)
8,"COc1ccc(-c2noc(N3CCC(C(=O)NCc4ccccc4OC(F)F)CC3)n2)cc1 [Compound 284, N-(2-(difluoromethoxy)benzyl)-1-(3-(4-methoxyphenyl)-1,2,4-oxadiazol-5-yl)piperidine-4-carboxamide]",+ (+ >3 and <5)
9,"COc1ccc(-c2noc(N3CCC(C(=O)NCc4cc5ccccc5[nH]4)CC3)n2)cc1 [Compound 285, N-((1H-indol-2-yl)methyl)-1-(3-(4-methoxyphenyl)-1,2,4-oxadiazol-5-yl)piperidine-4-carboxamide]",++ (++ ≥5 and <6)
10,"C#CCCC1(CCN2CCC(CNC(=O)C3CCN(c4nc(-c5ccc(OC)cc5)no4)CC3)C2)N=N1 (centres unmarked) [Compound 286, N-((1-(2-(3-(but-3-yn-1-yl)-3H-diazirin-3-yl)ethyl)pyrrolidin-3-yl)methyl)-1-(3-(4-methoxyphenyl)-1,2,4-oxadiazol-5-yl)piperidine-4-carboxamide]",++ (++ ≥5 and <6)
11,"C#CCCC1(CCOc2ccc(-c3noc(N4CCC(C(=O)NCC5CCN(Cc6ccc(C)cc6)C5)CC4)n3)cc2)N=N1 (centres unmarked) [Compound 287, 1-(3-(4-(2-(3-(but-3-yn-1-yl)-3H-diazirin-3-yl)ethoxy)phenyl)-1,2,4-oxadiazol-5-yl)-N-((1-(4-methylbenzyl)pyrrolidin-3-yl)methyl)piperidine-4-carboxamide]",+++ (+++ ≥6)
12,"C#CCCC1(CCOc2cccc(-c3noc(N4CCC(C(=O)NCC5CCN(Cc6ccc(C)cc6)C5)CC4)n3)c2)N=N1 (centres unmarked) [Compound 288, 1-(3-(3-(2-(3-(but-3-yn-1-yl)-3H-diazirin-3-yl)ethoxy)phenyl)-1,2,4-oxadiazol-5-yl)-N-((1-(4-methylbenzyl)pyrrolidin-3-yl)methyl)piperidine-4-carboxamide]",++ (++ ≥5 and <6)
13,"COc1ccc(-c2noc(N3CCC(C(=O)NC4CCOC5(CCCCC5)C4)CC3)n2)cc1 (centres unmarked) [Compound 289, 1-(3-(4-methoxyphenyl)-1,2,4-oxadiazol-5-yl)-N-(1-oxaspiro[5.5]undecan-4-yl)piperidine-4-carboxamide]",+ (+ >3 and <5)
14,"COc1ccc(-c2noc(N3CCC(C(=O)NC4COC5(CCCCC5)C4)CC3)n2)cc1 (centres unmarked) [Compound 290, 1-(3-(4-methoxyphenyl)-1,2,4-oxadiazol-5-yl)-N-(1-oxaspiro[4.5]decan-3-yl)piperidine-4-carboxamide]",+ (+ >3 and <5)
15,"COc1ccc(-c2noc(N3CCC(C(=O)NC4(C5CC5)CCOCC4)CC3)n2)cc1 [Compound 291, N-(4-cyclopropyltetrahydro-2H-pyran-4-yl)-1-(3-(4-methoxyphenyl)-1,2,4-oxadiazol-5-yl)piperidine-4-carboxamide]",+ (+ >3 and <5)
16,"COc1ccc(-c2noc(N3CCC(C(=O)NC4(C5CCCCC5)CC4)CC3)n2)cc1 [Compound 292, N-(1-cyclohexylcyclopropyl)-1-(3-(4-methoxyphenyl)-1,2,4-oxadiazol-5-yl)piperidine-4-carboxamide]",+ (+ >3 and <5)
17,"COc1ccc(-c2noc(N3CCC(C(=O)NC[C@@H]4CCCC[C@H]4O)CC3)n2)cc1 [Compound 293, N-(((1S,2R)-2-hydroxycyclohexyl)methyl)-1-(3-(4-methoxyphenyl)-1,2,4-oxadiazol-5-yl)piperidine-4-carboxamide]",+ (+ >3 and <5)
18,"COc1ccc(-c2noc(N3CCC(C(=O)NC4CC(O)C4(C)C)CC3)n2)cc1 (centres unmarked) [Compound 294, N-(3-hydroxy-2,2-dimethylcyclobutyl)-1-(3-(4-methoxyphenyl)-1,2,4-oxadiazol-5-yl)piperidine-4-carboxamide]",+ (+ >3 and <5)
19,"COc1ccc(-c2noc(N3CCC(C(=O)N[C@H]4[C@@H]5CN(C)C[C@@H]54)CC3)n2)cc1 [Compound 295, 1-(3-(4-methoxyphenyl)-1,2,4-oxadiazol-5-yl)-N-((1R,5S,6s)-3-methyl-3-azabicyclo[3.1.0]hexan-6-yl)piperidine-4-carboxamide]",+ (+ >3 and <5)
20,"COc1ccc(-c2noc(N3CCC(C(=O)NCC4(N(C)C)Cc5ccccc5C4)CC3)n2)cc1 [Compound 296, N-((2-(dimethylamino)-2,3-dihydro-1H-inden-2-yl)methyl)-1-(3-(4-methoxyphenyl)-1,2,4-oxadiazol-5-yl)piperidine-4-carboxamide]",+ (+ >3 and <5)
21,"COc1ccc(-c2noc(N3CCC(C(=O)NC(C)C(C)(C)O)CC3)n2)cc1 (centres unmarked) [Compound 297, N-(3-hydroxy-3-methylbutan-2-yl)-1-(3-(4-methoxyphenyl)-1,2,4-oxadiazol-5-yl)piperidine-4-carboxamide]",+ (+ >3 and <5)
22,"COc1ccc(-c2noc(N3CCC(C(=O)NC4(c5nc(C)cs5)CCC4)CC3)n2)cc1 [Compound 298, 1-(3-(4-methoxyphenyl)-1,2,4-oxadiazol-5-yl)-N-(1-(4-methylthiazol-2-yl)cyclobutyl)piperidine-4-carboxamide]",+ (+ >3 and <5)
23,"COc1ccc(-c2noc(N3CCC(C(=O)NC(CO)CC(F)(F)F)CC3)n2)cc1 (centres unmarked) [Compound 299, 1-(3-(4-methoxyphenyl)-1,2,4-oxadiazol-5-yl)-N-(4,4,4-trifluoro-1-hydroxybutan-2-yl)piperidine-4-carboxamide]",+ (+ >3 and <5)
